Reference: patent US20220089629A1, “AMORPHOUS SIALYLATED OLIGOSACCHARIDES” (GLYCOM A/S, priority 2019, published 2022)
Counter-ions that a name gives are not always drawn.

Key:
[1] = pH measurement of aqueous solutions by pH-meter; format: physicochemical; settings: for pH of aqueous stock solution: before pH adjustment
Experimental: When a pH value is referred to, it is measured by a pH-meter conventionally.
3′-SL Na-salt was made by bacterial fermentation and isolated in accordance with e.g. WO 2017/152918. An aqueous stock solution was made the concentration of which was 5.3 g/100 g, pH: 4.8.
Series A: a part of the above aqueous stock solution was adjusted to pH of 3.6 by addition of 1 M HCl-solution. The so-obtained solution was freeze-dried to give a white amorphous powder. The pH of its 5 w/w % solution was 3.9.
6′-SL Na-salt was made by bacterial fermentation and isolated in accordance with e.g. US 2018/0002363. An aqueous stock solution was made the concentration of which was 9.1 g/100 g, pH: 5.4.
Series A: a part of the above aqueous stock solution was adjusted to pH of 3.1 by addition of 1 M HCl-solution. The so-obtained solution was freeze-dried to give a white amorphous powder. The pH of its 5 w/w % solution was 3.5.

[2] = Forced heat stability test of freeze-dried amorphous 3′-SL samples, analysed by HPAEC-PAD; format: physicochemical
Experimental: Seven by one gram from each series, separately, was put into 4 ml glass vials and closed with screw lid containing teflon inliner (21 samples altogether). Three samples from each series were put into a 60° C. oven, and another three samples from each series were put into a 80° C. oven. One samples from each series was removed from the ovens after a time indicated below and kept in a freezer until analysis. The t=0 samples (one sample from each series) were kept in freezer during the entire time of the test.
The samples were analysed together after the longest incubation had finished by HPAEC-PAD on Carbopac PA-200 (3×250 mm) column using isocratic 75 mM NaOH+37.5 mM NaOAc eluent.

CC(=O)N[C@H]1[C@H]([C@H](O)[C@H](O)CO)O[C@@](O[C@H]2[C@@H](O)[C@@H](CO)O[C@@H](O[C@H]3[C@H](O)[C@@H](O)C(O)O[C@@H]3CO)[C@@H]2O)(C(=O)O)C[C@@H]1O (stereo partly drawn) [3′-SL Na-salt, 3′-sialyllactose]
pH of aqueous stock solution ([1]; concentration 5.3 g/100 g): 4.8

CC(=O)N[C@H]1[C@H]([C@H](O)[C@H](O)CO)O[C@@](OC[C@H]2O[C@@H](O[C@H]3[C@H](O)[C@@H](O)[C@H](O)O[C@@H]3CO)[C@H](O)[C@@H](O)[C@H]2O)(C(=O)O)C[C@@H]1O [6′-SL Na-salt, 6′-sialyllactose]
pH of aqueous stock solution ([1]; concentration 9.1 g/100 g): 5.4

CC(=O)N[C@H]1[C@H]([C@H](O)[C@H](O)CO)O[C@@](O[C@H]2[C@@H](O)[C@@H](CO)O[C@@H](O[C@H]3[C@H](O)[C@@H](O)C(O)O[C@@H]3CO)[C@@H]2O)(C(=O)O)C[C@@H]1O (stereo partly drawn) [Example 1 Series A, 3′-sialyllactose]
content of 3′-O-sialyl-lactulose (ketose rearranged derivative of 3′-SL) in the sample ([2]; 60° C., 2 weeks, solid in closed vial, listed as sample A): 1.66 area %
content of 3′-O-sialyl-lactulose (ketose rearranged derivative of 3′-SL) in the sample ([2]; 60° C., 4 weeks, solid in closed vial, listed as sample A): 2.12 area %
content of 3′-O-sialyl-lactulose (ketose rearranged derivative of 3′-SL) in the sample ([2]; 60° C., 6 weeks, solid in closed vial, listed as sample A): 1.96 area %
content of 3′-O-sialyl-lactulose (ketose rearranged derivative of 3′-SL) in the sample ([2]; 80° C., 1 weeks, solid in closed vial, listed as sample A): 1.91 area %
content of 3′-O-sialyl-lactulose (ketose rearranged derivative of 3′-SL) in the sample ([2]; 80° C., 2 weeks, solid in closed vial, listed as sample A): 1.97 area %
content of 3′-O-sialyl-lactulose (ketose rearranged derivative of 3′-SL) in the sample ([2]; 80° C., 4 weeks, solid in closed vial, listed as sample A): 2.24 area %
content of 3′-O-sialyl-lactulose (ketose rearranged derivative of 3′-SL) in the sample ([2]; t = 0, kept in freezer, listed as sample A): 1.75 area %

CC(=O)N[C@H]1[C@H]([C@H](O)[C@H](O)CO)O[C@@](O[C@H]2[C@@H](O)[C@@H](CO)O[C@@H](O[C@H]3[C@H](O)[C@@H](O)C(O)O[C@@H]3CO)[C@@H]2O)(C(=O)O)C[C@@H]1O (stereo partly drawn) [Example 1 Series B, 3′-sialyllactose]
content of 3′-O-sialyl-lactulose (ketose rearranged derivative of 3′-SL) in the sample ([2]; 60° C., 2 weeks, solid in closed vial, listed as sample B): 2.16 area %
content of 3′-O-sialyl-lactulose (ketose rearranged derivative of 3′-SL) in the sample ([2]; 60° C., 4 weeks, solid in closed vial, listed as sample B): 2.16 area %
content of 3′-O-sialyl-lactulose (ketose rearranged derivative of 3′-SL) in the sample ([2]; 60° C., 6 weeks, solid in closed vial, listed as sample B): 2.31 area %
content of 3′-O-sialyl-lactulose (ketose rearranged derivative of 3′-SL) in the sample ([2]; 80° C., 1 weeks, solid in closed vial, listed as sample B): 2.34 area %
content of 3′-O-sialyl-lactulose (ketose rearranged derivative of 3′-SL) in the sample ([2]; 80° C., 2 weeks, solid in closed vial, listed as sample B): 2.39 area %
content of 3′-O-sialyl-lactulose (ketose rearranged derivative of 3′-SL) in the sample ([2]; 80° C., 4 weeks, solid in closed vial, listed as sample B): 2.88 area %
content of 3′-O-sialyl-lactulose (ketose rearranged derivative of 3′-SL) in the sample ([2]; t = 0, kept in freezer, listed as sample B): 1.77 area %

CC(=O)N[C@H]1[C@H]([C@H](O)[C@H](O)CO)O[C@@](O[C@H]2[C@@H](O)[C@@H](CO)O[C@@H](O[C@H]3[C@H](O)[C@@H](O)C(O)O[C@@H]3CO)[C@@H]2O)(C(=O)O)C[C@@H]1O (stereo partly drawn) [Example 1 Series C, 3′-sialyllactose]
content of 3′-O-sialyl-lactulose (ketose rearranged derivative of 3′-SL) in the sample ([2]; 60° C., 2 weeks, solid in closed vial, listed as sample C): 2.67 area %
content of 3′-O-sialyl-lactulose (ketose rearranged derivative of 3′-SL) in the sample ([2]; 60° C., 4 weeks, solid in closed vial, listed as sample C): 2.96 area %
content of 3′-O-sialyl-lactulose (ketose rearranged derivative of 3′-SL) in the sample ([2]; 60° C., 6 weeks, solid in closed vial, listed as sample C): 3.03 area %
content of 3′-O-sialyl-lactulose (ketose rearranged derivative of 3′-SL) in the sample ([2]; 80° C., 1 weeks, solid in closed vial, listed as sample C): 2.95 area %
content of 3′-O-sialyl-lactulose (ketose rearranged derivative of 3′-SL) in the sample ([2]; 80° C., 2 weeks, solid in closed vial, listed as sample C): 3.38 area %
content of 3′-O-sialyl-lactulose (ketose rearranged derivative of 3′-SL) in the sample ([2]; 80° C., 4 weeks, solid in closed vial, listed as sample C): 4.61 area %
content of 3′-O-sialyl-lactulose (ketose rearranged derivative of 3′-SL) in the sample ([2]; t = 0, kept in freezer, listed as sample C): 1.81 area %

CC(=O)N[C@H]1[C@H]([C@H](O)[C@H](O)CO)O[C@@](OC[C@H]2O[C@@H](O[C@H]3[C@H](O)[C@@H](O)[C@H](O)O[C@@H]3CO)[C@H](O)[C@@H](O)[C@H]2O)(C(=O)O)C[C@@H]1O [Example 2 Series D, 6′-sialyllactose]
pH of the 5 w/w % solution of the freeze-dried amorphous powder ([1]; 5 w/w % aqueous solution after freeze-drying): 6.2
